Legend:
Assay in all cases: relative viability (nuclei count vs DMSO), 5 days (fraction); higher = more cells survive
[1] = compound: CC1=CC=C(C=C1)C(=O)CN2C3=C(CCCC3)SC2=N [Pifithrin_alpha] + CC1(C)CCC(c2ccc(Cl)cc2)=C(CN2CCN(c3ccc(C(=O)NS(=O)(=O)c4ccc(N[C@H](CCN5CCOCC5)CSc5ccccc5)c(S(=O)(=O)C(F)(F)F)c4)cc3)CC2)C1 [Navitoclax] (partner 0.5 µM)
Procedure, shortened: (§1)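 Lung cancer cell lines in 1536-well plates got either a single drug or a fixed anchor-drug dose together with five library-drug doses (not always all listed) in √10 steps, by pin tool, on the day after seeding. Nuclei were counted after 5 days, and relative viability is the treated-to-vehicle ratio of nuclei counts. Values are medians of duplicate plates.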

[2] = compound: CNC(=O)c1ccccc1Sc1ccc2c(/C=C/c3ccccn3)n[nH]c2c1 [Axitinib] + CCNC(=O)c1noc(-c2cc(C(C)C)c(O)cc2O)c1-c1ccc(CN2CCOCC2)cc1 [Luminespib] (partner 0.01 µM)
Procedure, shortened: as §1

[3] = compound: CNC(=O)c1ccccc1Sc1ccc2c(/C=C/c3ccccn3)n[nH]c2c1 [Axitinib] + CS(=O)(=O)N1CCN(Cc2cc3nc(-c4cccc5[nH]ncc45)nc(N4CCOCC4)c3s2)CC1 [Pictilisib] (partner 1 µM)
Procedure, shortened: as §1

| Cell Line | relative viability ([1]; first compound 3.162 µM) | relative viability ([1]; first compound 10 µM) | relative viability ([1]; first compound 100 µM) | relative viability ([2]; first compound 0.005 µM) | relative viability ([2]; first compound 0.01581 µM) | relative viability ([2]; first compound 0.05 µM) | relative viability ([2]; first compound 0.1581 µM) | relative viability ([2]; first compound 0.5 µM) | relative viability ([3]; first compound 0.005 µM) | relative viability ([3]; first compound 0.01581 µM) | relative viability ([3]; first compound 0.05 µM) | relative viability ([3]; first compound 0.1581 µM) | relative viability ([3]; first compound 0.5 µM) | relative viability ([1]; first compound 1 µM) | relative viability ([1]; first compound 31.62 µM) |
| --- | --- | --- | --- | --- | --- | --- | --- | --- | --- | --- | --- | --- | --- | --- | --- |
| LCLC-97TM1 | 0.548 | 0.513 | 0.425 | 0.671 | 0.826 | 0.663 | 0.672 | 0.722 | 0.145 | 0.229 | 0.206 | 0.247 | 0.172 |  |  |
| LCLC-103H |  |  |  | 0.988 | 0.917 | 0.978 | 0.924 | 0.994 | 0.644 | 0.512 | 0.664 | 0.569 | 0.587 |  |  |
| LK-2 | 1 | 0.749 | 0.997 | 0.185 | 0.146 | 0.19 | 0.185 | 0.18 | 0.556 | 0.434 | 0.512 | 0.506 | 0.486 | 0.862 | 0.534 |
| LOU-NH91 | 0.576 | 0.643 | 0.517 | 0.325 | 0.377 | 0.379 | 0.349 | 0.331 | 0.528 | 0.529 | 0.557 | 0.544 | 0.52 | 0.502 | 0.409 |
| LU99A | 0.782 | 0.874 | 0.892 | 0.239 | 0.265 | 0.241 | 0.302 | 0.303 | 0.355 | 0.349 | 0.336 | 0.363 | 0.306 | 0.823 |  |
| LXF-289 | 1.01 | 0.96 | 0.901 | 0.69 | 0.721 | 0.659 | 0.573 | 0.781 | 0.823 | 0.732 | 0.833 | 0.765 | 0.742 | 0.984 | 0.793 |
| NCI-H23 | 0.857 | 0.889 | 0.729 | 0.21 |  | 0.233 | 0.231 | 0.219 | 0.535 | 0.574 | 0.505 | 0.477 | 0.508 | 0.797 | 0.736 |
| NCI-H322M | 1.35 | 1.27 | 1.33 | 1.06 | 0.845 | 0.833 | 0.796 | 1.07 | 0.571 | 0.496 | 0.474 | 0.472 | 0.505 | 1.17 | 1.22 |
| NCI-H358 |  |  |  | 0.478 | 0.364 | 0.436 | 0.338 | 0.325 | 0.369 | 0.309 | 0.33 | 0.336 | 0.369 |  |  |
| NCI-H441 | 0.813 | 0.587 | 0.831 | 0.305 | 0.325 | 0.313 | 0.456 | 0.576 | 0.456 | 0.563 | 0.413 | 0.571 | 0.542 | 0.652 | 0.481 |
| NCI-H460 | 0.989 | 0.989 | 0.933 | 0.0293 | 0.0335 | 0.0318 | 0.0323 | 0.0338 | 0.403 | 0.443 | 0.333 | 0.323 | 0.327 | 1.41 |  |
| NCI-H520 | 1.32 | 1.16 | 1.12 | 0.228 | 0.239 | 0.23 | 0.222 | 0.284 | 0.326 | 0.247 | 0.288 | 0.272 | 0.327 | 1.11 | 0.94 |
| NCI-H522 |  |  |  | 1.28 | 1.18 | 1.02 | 0.998 | 1.02 |  |  |  |  |  |  |  |
| NCI-H596 | 0.891 | 0.9 | 1.13 | 1.12 | 1.09 | 1 | 0.93 | 1.04 | 0.352 | 0.359 | 0.417 | 0.379 | 0.364 | 0.844 | 0.88 |
| NCI-H647 | 1.07 | 0.86 | 1.03 | 0.292 | 0.167 | 0.168 | 0.227 | 0.285 | 0.439 | 0.416 | 0.425 | 0.478 | 0.399 | 0.814 |  |
| NCI-H661 |  |  |  | 0.901 | 0.924 | 0.9 | 0.998 | 0.952 | 0.387 | 0.422 | 0.339 | 0.46 | 0.375 |  |  |
| NCI-H727 | 0.412 | 0.307 | 0.271 | 0.325 | 0.276 | 0.345 | 0.346 | 0.278 | 0.486 | 0.426 | 0.485 | 0.397 | 0.492 | 0.356 | 0.244 |
| NCI-H838 | 1.06 | 1 | 0.882 | 0.247 | 0.33 | 0.334 | 0.24 | 0.246 | 0.461 | 0.37 | 0.551 | 0.594 | 0.607 | 1.14 | 0.833 |
| NCI-H1299 | 1.08 | 1 | 1 |  |  |  |  |  | 0.765 | 0.997 | 0.75 | 0.856 | 1.1 | 1.07 | 0.952 |
| NCI-H1355 | 0.675 | 0.692 | 0.563 | 0.822 | 0.73 | 0.748 | 0.747 | 0.659 | 0.41 | 0.514 | 0.606 | 0.432 | 0.308 | 0.812 | 0.556 |
| NCI-H1395 | 1.15 | 1.34 | 1.31 | 0.8 | 0.76 | 0.838 | 0.609 | 0.586 | 0.612 | 0.559 | 0.634 | 0.528 | 0.684 |  | 0.604 |
| NCI-H1437 | 1.16 | 1.13 | 0.775 | 1.12 | 1.1 | 1.07 | 1.16 | 1.08 | 0.437 | 0.399 | 0.459 | 0.418 | 0.402 | 1.25 | 0.784 |
| NCI-H1563 |  |  |  | 0.401 | 0.594 | 0.487 | 0.549 | 0.446 | 0.645 | 0.599 | 0.647 | 0.681 | 0.659 |  |  |
| NCI-H1623 |  |  |  | 0.519 | 0.602 | 0.444 | 0.538 | 0.481 |  |  |  |  |  |  |  |
| NCI-H1703 | 0.99 | 1.1 | 1.12 |  |  |  |  |  | 0.228 | 0.216 | 0.254 | 0.231 | 0.2 | 1.34 | 0.674 |
| NCI-H2342 |  |  |  | 0.896 | 0.763 | 0.59 | 0.756 | 0.726 |  |  |  |  |  |  |  |
| SW 900 |  |  |  | 0.167 | 0.162 | 0.159 | 0.185 | 0.18 |  |  |  |  |  |  |  |

— the supplement of paper PMC10307832
